“And” between values parts separate entries of the source, which are not always exact repeats. Equal entries are not always repeated.
Assays:
[1] = Detailed photochemical characterization of 3f (1H NMR, UV-vis switching cycles); format: physicochemical
Description: Figure S10. Photochemical properties of 3f. (A) UV-vis spectra of 25 µM 3f in HBSS buffer containing 1% DMSO in the dark, after illumination to PSScis with 365 ± 10 nm for 2 min and after subsequent illumination to PSStrans with 506 ± 20 nm for 2 min. (B) Representative parts of LC−MS chromatograms of 3f in the dark, after illumination with 365 ± 10 nm for 300 s to reach PSScis and subsequently with 506 ± 20 nm for 300 s to reach PSStrans (full chromatograms […]
(C) Part of 1H NMR spectra of 10 mM 3f in DMSO-d6 (representing the two aromatic signals) in the dark, after illumination with 365 ± 10 nm for 600 s to reach PSScis and subsequently 506 ± 20 nm for 900 s to reach PSStrans (full spectra are shown in Figure S12). (D) Reversible isomerization cycles of 25 µM 3f in HBSS buffer containing 1% DMSO, repeatedly illuminated for 30 s with 365 ± 10 nm to reach PSScis and subsequently for […]
60 s with 506 ± 20 nm to reach PSStrans. […]
states in the 400-550 nm area (Figure S10A). This allows efficient trans-PSScis photoswitching in HBSS buffer using UV light (365 nm) and PSScis-PSStrans back-switching with green light (506 nm). LC-MS analysis (Figure S10B, S11) and, more quantitively, 1H NMR analysis (Figure S10C, S12) reveal high PSScis and PSStrans values for 3f (98% and >95% cis isomer for PSScis by LC-MS and 1H NMR analysis, respectively; 93% and 93% trans isomer for PSStrans by LC-MS and 1H NMR analysis, respectively). These analyses also confirmed that no photodecomposition occurs upon illumination with either 365 or 506 nm. Reversible isomerization cycles could be conducted in HBSS buffer without any photobleaching (Figure […]
S10D). […] Subsequently, the […]
UV−Vis spectra were recorded using a Thermo-scientific Evolution 201 PC spectrophotometer equipped with a thermostated cell holder set at 20 °C. […] The light intensity used for the lambda 10-3 optical filter is 0.93 mW/mm2 using the 360 ± 20 nm filter, 0.79 mW/mm2 for the 434 ± 9 nm filter, 0.77 mW/mm2 for the 494 ± 9 nm filter as measured using a Thorlabs PM16−401 power meter. […]

H3R = H3R (Homo sapiens, UniProt Q9Y5N1); test: [3H]NAMH competition radioligand binding on cell homogenates overexpressing H3R; conditions: for Ki: [3H]NAMH competition, n = 3
Chain of H3R (Q9Y5N1 whole entry): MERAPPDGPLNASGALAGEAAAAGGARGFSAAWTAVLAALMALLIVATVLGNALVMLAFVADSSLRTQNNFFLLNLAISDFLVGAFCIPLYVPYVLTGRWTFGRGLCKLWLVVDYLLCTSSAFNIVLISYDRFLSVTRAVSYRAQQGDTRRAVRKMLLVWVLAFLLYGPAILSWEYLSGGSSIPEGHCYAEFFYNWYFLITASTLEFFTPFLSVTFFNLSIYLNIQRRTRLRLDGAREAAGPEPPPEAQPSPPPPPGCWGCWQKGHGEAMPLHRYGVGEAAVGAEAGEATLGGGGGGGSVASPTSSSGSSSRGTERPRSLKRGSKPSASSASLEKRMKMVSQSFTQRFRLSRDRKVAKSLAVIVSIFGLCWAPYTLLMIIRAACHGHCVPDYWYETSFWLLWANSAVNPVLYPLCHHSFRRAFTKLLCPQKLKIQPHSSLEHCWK

- PSScis (% cis isomer) by 1H NMR ([1]; 10 mM in DMSO-d6, 365 ± 10 nm for 600 s): > 95%
- PSStrans (% trans isomer) by 1H NMR ([1]; 10 mM in DMSO-d6, 506 ± 20 nm for 900 s): 93%
- photodecomposition upon illumination ([1]; illumination with either 365 or 506 nm, LC-MS and 1H NMR): no
- Fold Ki shift (H3R; (high-affinity state)/(low-affinity state), ↓ lower affinity of PSS cis state than trans): 50 fold and 50.1 ↓ fold
- Ki (H3R; pKi PSScis ± SEM, PSS cis state): 25.1 nM
- Ki (H3R; pKi trans ± SEM, trans isomer): 0.501 nM
Structure (SMILES): Cc1nn(C2CCN(C)CC2)c(C)c1/N=N/c1ccc(O[C@H]2C[C@H](N3CCCCC3)C2)cc1 [Compound 3f]

— paper PMC12257542, “A Radiolabeled Photoswitchable G Protein-Coupled Receptor Antagonist Enlightens Ligand Binding Kinetics Associated with Photoswitching” (Journal of the American Chemical Society, 2025)
